Consider five compounds from patent US10227331B2 (priority 2015, dated 2019).

The subject of data set [1] is MB 9799 (MB 5890 Trans IMP1 plasmid, efflux-). The data set is classed as cell-based, Pseudomonas aeruginosa. As to conditions: CL 5673 (IMP-1) plasmid.
Data set [2] has as its system MB 9862 (MB 5890 Trans pFIp-Vim1, efflux-). The data set is classed as cell-based, Pseudomonas aeruginosa.
The test system of the next data set is MB 5890 (OprD+, efflux-). The data set is classed as cell-based, Pseudomonas aeruginosa.
The subject of data set [3] is MB 9861 (MB 5919 Trans pFIp-Vim1 plasmid, efflux+). The data set is classed as cell-based, Pseudomonas aeruginosa.
Data set [4] relates to MB 5890 Trans pFIp-Vim2 plasd (efflux-). The data set is classed as cell-based, Pseudomonas aeruginosa.
Data set [5] has as its system MB 5919 Trans pFIp-Vim2 plasd (efflux+). The data set is classed as cell-based, Pseudomonas aeruginosa.
Another data set has as its system MB 5919 (OprD+, efflux+). The data set is classed as cell-based, Pseudomonas aeruginosa.
The test system of data set [6] is P. aeruginosa expressing IMP-1, efflux− (MB9799). Briefly: Efflux: concentration of MBL inhibitor which restores susceptibility to imipenem. The data set is classed as cell-based, Pseudomonas aeruginosa. As to conditions: imipenem at 2 μg/mL, in the presence of a class A, C, D serine β-lactamase inhibitor closely related to relebactam. From the text: (§1) The strain background is Pseudomonas aeruginosa PAO1.

The target of a further data set is NDM-1 (Klebsiella pneumoniae, UniProt C7C422). Briefly: biochemical. As to conditions: CCF2-FA substrate, 2 hours at 25° C; read-out: NDM-1 IC50. The data set is classed as biochemical. The method in brief:
(§2)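 Inhibitor was mixed with the metallo-β-lactamase and CCF2-FA. After 2 hours at 25° C, fluorescence of the coumarin–fluorescein cephalosporin substrate was read. IC50 was calculated with a 4-parameter fit.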

In the next data set the target is IMP-1 (Serratia marcescens, UniProt P52699). The experiment in a line: biochemical. The data set is classed as biochemical. The note with it: CCF2-FA substrate, 2 hours at 25° C; read-out: IMP-1 IC50. In a few lines:
as §2

A further data set addresses VIM-1 (Pseudomonas aeruginosa (strain ATCC 15692 / DSM 22644 / CIP 104116 / JCM 14847 / LMG 12228 / 1C / PRS 101 / PAO1), UniProt A0A0F7KYQ8). The experiment in a line: biochemical. As to conditions: CCF2-FA substrate, 2 hours at 25° C. In a few lines: as §2
Data set [7] relates to Serratia marcescens expressing IMP-1 (CL5741). The data set is classed as cell-based. As to conditions: with imipenem 1 μg/ml; 95% inhibition of bacterial growth. In a few lines:
(§3)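 Colonies from overnight 35 °C blood-agar cultures were suspended in saline, diluted 1:100 into 1.1× CAMHB and exposed to test compound with or without imipenem at 1 μg/ml. After 22–24 h at 35 °C, absorbance was read to find the concentration restoring imipenem susceptibility.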

Data set [8] has as its system Klebsiella pneumoniae expressing VIM-1 (IHMA599644). The data set is classed as cell-based. The note with it: with imipenem 1 μg/ml; 95% inhibition of bacterial growth. In a few lines:
as §3

The test system of data set [9] is Escherichia coli expressing NDM-1 (CLB30005, CLB30016). The data set is classed as cell-based. As to conditions: with imipenem 1 μg/ml; 95% inhibition of bacterial growth. In a few lines: as §3
Data set [10] concerns P. aeruginosa expressing IMP-1, efflux+ (MB9798). The data set is classed as cell-based, Pseudomonas aeruginosa.
Text: as §1

The structures appear in SMILES notation. Converted amounts (≈) assume the structure as drawn.

Usually MIC stands for the lowest concentration that inhibits growth of the organism. Broadly, the IC50 is the concentration that inhibits the measured activity by half.

Chain of IMP-1 (P52699 whole entry, looked up, species assumed): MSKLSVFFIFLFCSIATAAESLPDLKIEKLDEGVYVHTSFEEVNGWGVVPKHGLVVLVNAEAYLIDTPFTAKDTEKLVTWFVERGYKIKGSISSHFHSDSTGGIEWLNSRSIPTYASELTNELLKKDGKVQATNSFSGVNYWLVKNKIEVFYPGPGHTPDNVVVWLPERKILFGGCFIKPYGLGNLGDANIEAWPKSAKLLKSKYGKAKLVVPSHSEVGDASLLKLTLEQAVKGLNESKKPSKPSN
Chain of NDM-1 (C7C422 whole entry, looked up, species assumed): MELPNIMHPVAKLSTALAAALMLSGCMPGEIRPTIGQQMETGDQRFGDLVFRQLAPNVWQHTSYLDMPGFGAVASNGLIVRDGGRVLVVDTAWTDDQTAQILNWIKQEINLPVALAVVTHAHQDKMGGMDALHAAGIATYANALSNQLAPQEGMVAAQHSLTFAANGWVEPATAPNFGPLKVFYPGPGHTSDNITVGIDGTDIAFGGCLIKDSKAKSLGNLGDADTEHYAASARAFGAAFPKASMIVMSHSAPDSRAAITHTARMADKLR

With `CCN1CCN(C(=O)N[C@@H](C(=O)N[C@@H]2C(=O)N3[C@@H]2SC(C)(C)[C@@H]3C(=O)O)c2ccccc2)C(=O)C1=O` [Pipercillin, piperacillin], the MIC in data set [1] was 4 µg/mL (≈ 7.73 µM); in [2] it was 128 µg/mL (≈ 247 µM); with MB 5890 (OprD+, efflux-), 1 µg/mL (≈ 1.93 µM); in data set [3], above 256 µg/mL; in data set [4], 128 µg/mL (≈ 247 µM); in data set [5], above 256 µg/mL. The MIC in the data set with MB 5919 (OprD+, efflux+) was found to be 2 µg/mL (≈ 3.86 µM).

In the case of `C[C@@H](O)[C@H]1C(=O)N2C(C(=O)O)=C(SCCN=CN)C[C@H]12` [Imipenem, imipenem], the MIC was 32 µg/mL (≈ 107 µM) in data set [1]; 64 µg/mL (≈ 214 µM) in data set [2]; 2 µg/mL (≈ 6.68 µM) against MB 5890 (OprD+, efflux-); above 64 µg/mL in [3]; 32 µg/mL (≈ 107 µM) in data set [4]; above 64 µg/mL in data set [5]. In the data set on MB 5919 (OprD+, efflux+), this compound showed an MIC of 4 µg/mL (≈ 13.4 µM).

Consider `CC(C)(O/N=C(\C(=O)N[C@@H]1C(=O)N2C(C(=O)[O-])=C(C[n+]3ccccc3)CS[C@H]12)c1csc(N)n1)C(=O)O` [CAZ, ceftazidime], for which the MIC in data set [1] is 256 µg/mL (≈ 468 µM); in data set [2], above 256 µg/mL; with MB 5890 (OprD+, efflux-), 0.5 µg/mL (≈ 0.915 µM); in data set [3] it was above 256 µg/mL; in [4], 64 µg/mL (≈ 117 µM); in [5], 128 µg/mL (≈ 234 µM). Moreover, the MIC in the data set with MB 5919 (OprD+, efflux+) is 1 µg/mL (≈ 1.83 µM).

Take `C[C@@H](O)[C@H]1C(=O)N2C(C(=O)O)=C(S[C@@H]3CN[C@H](C(=O)N(C)C)C3)[C@H](C)[C@H]12` [Meropenem, meropenem]: the minimum inhibitory concentration (MIC) was 64 µg/mL (≈ 167 µM) in [1]; 64 µg/mL (≈ 167 µM) in [2]; 0.5 µg/mL (≈ 1.3 µM) in the data set with MB 5890 (OprD+, efflux-); above 64 µg/mL in data set [3]; 32 µg/mL (≈ 83.4 µM) in [4]; above 64 µg/mL in data set [5]. The same compound came in with an MIC in the data set on MB 5919 (OprD+, efflux+) of 2 µg/mL (≈ 5.22 µM).

As for `CC(=O)Nc1ccc(-c2ccc(S(=O)(=O)CCN)c(S(N)(=O)=O)c2-c2nnn[nH]2)cn1.O=C(O)C(F)(F)F` [Example 135, 2-((4-(6-acetamidopyridin-3-yl)-2-sulfamoyl-3-(1H-tetrazol-5-yl)phenyl)sulfonyl)ethanaminium 2,2,2-trifluoroacetate], the “P. aeruginosa expressing IMP-1, efflux− (MB9799) MITC95” value in data set [6] was 1.563 µM. The values for the IC50 on NDM-1, on IMP-1 and at VIM-1 were 0.265 nM, 1.65 nM and 1.22 nM, respectively. In [7], the “Serratia marcescens expressing IMP-1 (CL5741) MITC95” value was 3.125 µM. For the same compound, the “Klebsiella pneumoniae expressing VIM-1 (IHMA599644) MITC95” value in data set [8] came out at 6.25 µM. Moreover, the “Escherichia coli expressing NDM-1 (CLB30016) MITC95” value in data set [9] turned out to be 0.7813 µM. In data set [10] (imipenem at 2 μg/mL, in the presence of a class A, C, D serine β-lactamase inhibitor closely related to relebactam), the “P. aeruginosa expressing IMP-1, efflux+ (MB9798) MITC95” value came to 3.125 µM. In addition, in [10] (ratio MITC95 PA_9798/MITC95 PA_9799), the Efflux ratio is 2.00.
